Data as given in EP0100527A1, “4H-1,4-benzothiazines for use as medicaments” (BAYER AG, priority 1982, dated 1984).

Target: T1, Lipoxygenase in Kaninchen-PMN-Leukozyten (Oryctolagus cuniculus, UniProt G1SNX0)
T1 construct: Die polymorphkernigen Leukozyten des Menschen und des Kaninchens metabolisieren die Arachidonsäure; endogenous in cells; host or cells: rabbit polymorphonuclear (PMN) leukocytes
T1 sequence (G1SNX0 1-674): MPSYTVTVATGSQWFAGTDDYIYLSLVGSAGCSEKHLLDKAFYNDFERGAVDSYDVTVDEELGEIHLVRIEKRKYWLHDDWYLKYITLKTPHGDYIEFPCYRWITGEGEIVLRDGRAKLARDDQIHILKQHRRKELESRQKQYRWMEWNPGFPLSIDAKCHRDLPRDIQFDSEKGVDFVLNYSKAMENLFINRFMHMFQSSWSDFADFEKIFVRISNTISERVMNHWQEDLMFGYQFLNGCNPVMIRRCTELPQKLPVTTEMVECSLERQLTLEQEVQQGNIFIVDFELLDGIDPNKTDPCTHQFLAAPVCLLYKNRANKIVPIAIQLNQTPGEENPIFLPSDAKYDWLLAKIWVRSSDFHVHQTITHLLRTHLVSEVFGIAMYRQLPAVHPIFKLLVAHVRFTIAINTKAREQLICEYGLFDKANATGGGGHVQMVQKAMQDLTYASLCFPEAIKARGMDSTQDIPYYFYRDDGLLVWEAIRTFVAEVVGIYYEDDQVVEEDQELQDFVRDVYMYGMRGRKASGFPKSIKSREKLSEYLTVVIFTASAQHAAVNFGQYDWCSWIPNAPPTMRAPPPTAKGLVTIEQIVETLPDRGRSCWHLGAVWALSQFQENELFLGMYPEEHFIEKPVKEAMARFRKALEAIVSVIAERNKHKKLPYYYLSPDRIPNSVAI
Assay: Inhibition of lipoxygenase (release of 5-HETE and leukotriene B4) in rabbit PMN leukocytes
Type: cell-based
Excerpt: Analog den vorstehenden Ausführungen lassen sich die lipoxygenasehemmenden Eigenschaften der erfindungsgemäßen Verbindungen auch an Leukozyten nachweisen.
Die polymorphkernigen Leukozyten des Menschen und des Kaninchens metabolisieren die Arachidonsäure zu 5-Hydroxy-5,8,11,14-eikosatetraensäure (5-HETE) und Leukotrien B4 (5S, 12R-Dihydroxy-6 cis, 8,10-trans-14 ciseikosatetraensäure). Die Hemmung der Freisetzung von 5-HETE und Leukotrien B4 aus den Leukozyten stellt ein Maß für den lipoxygenasehemmenden Effekt der erfindungsgemäßen Verbindungen dar. (Vergl. Tab. 1) Der Test mit den Humanleukozyten wurde nach Borgeat und Samuelsson (j. Biol. Chem. 254; 2643, 1979 und Proc. Natl. Acad. Sci. USA, 76, 2148 1979), mit Kaninchenleukozyten nach Walker und .Parish (Inter. Archs. Allergy appl. Immun. 66, 83, 1981) durchgeführt.

| Compound | Minimale Konzentration für die Hemmung der Lipoxygenase in Kaninchen-PMN-Leukozyten |
| --- | --- |
| CC1=C(C(=O)OC2CCCCC2)Sc2ccccc2N1 [Beispiel 5] | 5x10^-7 - 10^-6 g/ml |
| COc1ccc2c(c1)SC(C(=O)OCCC#N)=C(C)N2 [Beispiel 28] | 10^-6 g/ml |
| CCN1C=C(C(=O)O)Sc2cc([N+](=O)[O-])ccc21 [Beispiel 37] | 5e-06 g/mL |
| CSCCOC(=O)C1=C(C)Nc2ccccc2S1 [Beispiel 8] | 5x10^-7 - 10^-6 g/ml |
| CC1=C(C(=O)OCCC#N)Sc2ccccc2N1 [Beispiel 1, 3-Methyl-4H-1,4-benzothiazin-2-carbonsäure-(2-cyanethyl)-ester] | 5x10^-7 - 10^-6 g/ml |
| CCOC(=O)C1=C(CC)Nc2ccccc2S1 [Beispiel 4] | 5x10^-7 - 10^-6 g/ml |
| CC1=C(C(=O)OCCc2ccccc2)Sc2ccccc2N1 [Beispiel 12] | 10^-6 g/ml |
| COC(=O)C1=C(C)Nc2ccccc2S1 [Beispiel 2] | 5x10^-7 - 10^-6 g/ml |
| CSCCOC(=O)C1=C(C)Nc2ccc(C)cc2S1 [Beispiel 29] | 10^-6 g/ml |
| CC1=C(C(=O)OCc2ccccc2)Sc2ccccc2N1 [Beispiel 13] | 5x10^-7 - 10^-6 g/ml |
| CC(=O)C1=C(C)Nc2ccccc2S1 [Beispiel 11] | 10^-6 g/ml |
| CCN1C=C(C(=O)OC)Sc2cc([N+](=O)[O-])ccc21 [Beispiel 40] | 5e-06 g/mL |
| CCOC(=O)C1=CNc2ccc(OC)cc2S1 [Beispiel 32] | 10^-6 g/ml |
| CCCCOC(=O)C1=C(C)Nc2ccccc2S1 [Beispiel 9] | 10^-6 g/ml |
